Data on ten molecules can be found in PubChem BioAssay (NCI).

Where “and” joins values, the source holds several entries; their conditions need not be identical. Identical values can stand only once.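 Each compound was tested at five concentrations against cells in 96-well plates for 48 hours. GI50 is the concentration that inhibits growth by half. TGI: total growth inhibition.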 Where only a bound is given, the exact number is not on record here.

Test systems include EKVX NSCLC; HCT-15 colon; U251 CNS; SK-MEL-2 melanoma; SN12C renal; MCF7 breast; KM12 colon; HCT-116 colon; SK-MEL-28 melanoma; CCRF-CEM leukemia.
Assay in all cases: growth of human tumour cells (NCI), 48 h

With `CNC1=C(C(=O)OC)SC(c2ccccc2)(c2ccccc2)SC1`, the GI50 in the test with EKVX NSCLC was 36.1 µM; in the test on HCT-15 colon, 9.36 µM; in the test with U251 CNS, 34.8 µM; in the test with SK-MEL-2 melanoma it was 7.06 µM; in the test with SN12C renal it was 24 µM; in the test on MCF7 breast, 11.6 µM. Moreover, the GI50 in the test on KM12 colon is 6.92 µM; in the test with HCT-116 colon, 9.22 µM; in the test on SK-MEL-28 melanoma, 26.6 µM. Further, the TGI in the test with EKVX NSCLC was more than 100 µM; in the test with HCT-15 colon, more than 100 µM; in the test on U251 CNS, more than 100 µM; in the test on SK-MEL-2 melanoma, 85.8 µM; in the test with SN12C renal, more than 100 µM; in the test on MCF7 breast, more than 100 µM. For the same molecule, the TGI with KM12 colon, in the test with HCT-116 colon and in the test with SK-MEL-28 melanoma was more than 100 µM each time.

Take `Nc1cc(S(N)(=O)=O)ccc1SSc1ccc(S(N)(=O)=O)cc1N`: the TGI in the test on EKVX NSCLC, with HCT-15 colon, in the test with U251 CNS, with SK-MEL-2 melanoma, with SN12C renal and in the test with MCF7 breast was more than 100 µM each time. In addition, the TGI in the test with KM12 colon, in the test with HCT-116 colon and in the test on SK-MEL-28 melanoma was more than 100 µM each time.

Turning to `CCC1(NC(=O)c2cc(F)c(F)c(F)c2F)C(=O)NC(=O)N(C(C)C)C1=O` (stereo unspecified), the GI50 in the test with EKVX NSCLC was 24.6 µM; in the test on HCT-15 colon it was 8.05 µM; in the test with U251 CNS it was 25.6 µM; in the test on SN12C renal, 26.4 µM; with MCF7 breast, more than 100 µM; in the test on KM12 colon, more than 100 µM. In addition, the GI50 in the test with HCT-116 colon was 22.5 µM; in the test on CCRF-CEM leukemia it was 19.8 µM; in the test with SK-MEL-28 melanoma, 14.5 µM. For the same molecule, the TGI with EKVX NSCLC was 97 µM; in the test with HCT-15 colon it was more than 100 µM; in the test with U251 CNS, 91.3 µM; in the test with SN12C renal it was more than 100 µM; in the test with MCF7 breast, more than 100 µM; with KM12 colon, more than 100 µM. Moreover, the TGI in the test on HCT-116 colon was 51.5 µM; in the test with CCRF-CEM leukemia it was 75.3 µM; in the test with SK-MEL-28 melanoma, 45 µM.

Take `CC(C)C[C@H](NC(=O)[C@H](Cc1cccc2ccccc12)NS(=O)(=O)c1cccc2cccnc12)B(O)O`: the GI50 is 0.109 µM in the test on EKVX NSCLC; 0.13 µM in the test with HCT-15 colon; 0.011 µM with U251 CNS; 0.0071 µM with SN12C renal; 0.000525 µM with MCF7 breast; 0.0178 µM in the test with KM12 colon. The values for the GI50 with HCT-116 colon and in the test on SK-MEL-28 melanoma were 0.00101 µM and 0.000701 µM, respectively. Also, the TGI was more than 100 µM in the test with EKVX NSCLC; 0.403 µM in the test on HCT-15 colon; 1.45 µM with U251 CNS; 0.095 µM and 0.0833 µM with SK-MEL-2 melanoma; 0.23 µM and 0.109 µM in the test on SN12C renal; more than 30.5 µM with MCF7 breast. Besides, the TGI in the test with KM12 colon was 0.114 µM and 0.179 µM; in the test on HCT-116 colon, 0.0203 µM and < 0.0351 µM; in the test on SK-MEL-28 melanoma, 0.0116 µM.

In the case of `CC(C)C[C@H](NC(=O)CCn1ccc2ncccc2c1=O)B(O)O`, the GI50 is 28.1 µM in the test on HCT-15 colon; 24.9 µM in the test with U251 CNS; 11 µM in the test on SK-MEL-2 melanoma; 18.9 µM in the test with SN12C renal; 3.88 µM in the test on MCF7 breast; 14.6 µM in the test on KM12 colon. Moreover, the GI50 in the test with HCT-116 colon was 3.64 µM; with CCRF-CEM leukemia, 0.308 µM; in the test on SK-MEL-28 melanoma, 6.8 µM. Also, the TGI was more than 100 µM in the test with HCT-15 colon; more than 100 µM with U251 CNS; more than 79.2 µM with SK-MEL-2 melanoma; more than 100 µM in the test on SN12C renal; more than 100 µM in the test on MCF7 breast; 37.7 µM in the test on KM12 colon. The TGI in the test on HCT-116 colon is 19 µM; in the test with CCRF-CEM leukemia, more than 26.5 µM; with SK-MEL-28 melanoma it was more than 76.7 µM.

Regarding `CCc1ccc2nccc(NCCCN(C)C)c2c1[N+](=O)[O-]`, the TGI in the test on EKVX NSCLC, in the test with U251 CNS, with SK-MEL-2 melanoma, in the test on SN12C renal, in the test on MCF7 breast and in the test with KM12 colon was more than 100 µM in each case. The TGI in the test with HCT-116 colon, with CCRF-CEM leukemia and with SK-MEL-28 melanoma was more than 100 µM in each case.

Take `OCC(CCc1c[nH]c2ccccc12)c1c[nH]c2ccccc12` (stereo unspecified): the TGI in the test with EKVX NSCLC came to 30.3 µM; in the test on HCT-15 colon, 32.2 µM; with U251 CNS, 30.4 µM; in the test on SK-MEL-2 melanoma it was 31.3 µM; in the test on SN12C renal, 32.6 µM; in the test on MCF7 breast, 35 µM. The TGI with KM12 colon was determined as 32.5 µM; with HCT-116 colon it was 29.2 µM; in the test on SK-MEL-28 melanoma it was 36.6 µM.

For `Cc1cnccc1N=Nc1ccc(N(C)C)cc1`, the TGI in the test on EKVX NSCLC was 32.9 µM; in the test on HCT-15 colon it was more than 100 µM; in the test on U251 CNS it was 70.9 µM; in the test on SN12C renal, 72.6 µM; in the test with MCF7 breast it was 35 µM; in the test on KM12 colon, more than 100 µM. Moreover, the values for the TGI with HCT-116 colon, in the test on CCRF-CEM leukemia and in the test with SK-MEL-28 melanoma were more than 100 µM, more than 100 µM and 52.7 µM, respectively.

For `CN(C)CCCCn1ccc2c1C(=O)c1c(c(O)c3ccccc3c1O)C2=O`, the GI50 is 16 µM with HCT-15 colon; 17.9 µM in the test on U251 CNS; 14.1 µM in the test with SN12C renal; 11.3 µM with MCF7 breast; 10.4 µM in the test on KM12 colon; 9.03 µM in the test on HCT-116 colon. Also, the GI50 was 1.32 µM with CCRF-CEM leukemia and 14.7 µM in the test on SK-MEL-28 melanoma. In addition, the TGI in the test with HCT-15 colon was found to be 29.4 µM; with U251 CNS, 31.7 µM; with SN12C renal it was 28.6 µM; in the test on MCF7 breast it was 28.4 µM; in the test with KM12 colon, 24.4 µM; with HCT-116 colon it was 21.1 µM. For the same molecule, the TGI worked out at 4.54 µM in the test on CCRF-CEM leukemia and 28.2 µM in the test on SK-MEL-28 melanoma.

For `CCN(CC)CCn1c2ccc(OC)cc2c2sc3cc(OC)ccc3c(=O)c21`, the GI50 was 1.6 µM in the test with EKVX NSCLC; 0.861 µM in the test with HCT-15 colon; 1.55 µM with U251 CNS; 2.1 µM with SK-MEL-2 melanoma; 2.03 µM in the test with SN12C renal; 1.16 µM in the test with MCF7 breast. Moreover, the GI50 in the test on KM12 colon was 2 µM; in the test with HCT-116 colon, 0.659 µM; in the test with SK-MEL-28 melanoma it was 1.7 µM. Moreover, the TGI with EKVX NSCLC came to 3.36 µM; with HCT-15 colon, 2.66 µM; in the test on U251 CNS it was 3.63 µM; with SK-MEL-2 melanoma it was 4.68 µM; with SN12C renal, 8.75 µM; in the test with MCF7 breast it was 2.45 µM. Besides, the TGI in the test with KM12 colon came to 4.32 µM; in the test with HCT-116 colon, 2.02 µM; in the test with SK-MEL-28 melanoma it was 3.12 µM.
